Source: US7259004B1, “Endophytic streptomycetes from higher plants with biological activity” (Montana State University, priority 2002, dated 2007)
Values after ≈ are worked out from the molar mass of the structure shown.

Columns and labels:
[1] = tested on: Klebsiella pneumoniae ATCC 10031; assay: disk diffusion assay; settings: MHA 35° C.
[2] = tested on: Staphylococcus aureus (MRSA) ATCC 33591; assay: disk diffusion assay; settings: MHA 35° C.
[3] = tested on: DNA synthesis in Bacillus subtilis; assay: macromolecular synthesis whole cell assay, [3H]thymidine incorporation; assay type: cell-based; settings: 1×MIC
[4] = tested on: Enterococcus faecium ATCC 51559; assay: disk diffusion assay; assay type: cell-based; settings: 10 micrograms per disk; ciprofloxacin 5, vancomycin 30 micrograms per disk; 35° C.
[5] = tested on: Shigella dysenteriae ATCC 11835; assay: disk diffusion assay; assay type: cell-based; settings: kakadumycin B at 10 μg; control antibiotic; MHA 35° C.
[6] = tested on: Enterococcus faecalis ATCC 51299; assay: disk diffusion assay; assay type: cell-based; settings: for Disk Diffusion, Enterococcus faccalis (VRE) 51299: kakadumycin B at 10 μg, control antibiotic, MHA 35° C.
Bacillus anthracis K8902 = assay type: cell-based; settings: 10 micrograms per disk; ciprofloxacin 5, vancomycin 30 micrograms per disk; 35° C.
[7] = tested on: Streptococcus pneumoniae ATCC 49619; assay: disk diffusion assay; assay type: cell-based; settings: for Disk Diffusion, Streptococcus pneumoniae 49619: kakadumycin B at 10 μg, control antibiotic, MHA w/5% dsb 35° C. w/5% CO2
[8] = tested on: Acinetobacter sp. ATCC 49137; assay: disk diffusion assay; assay type: cell-based; settings: for Disk Diffusion, Acinetobacter spp. 49137: kakadumycin B at 10 μg, control antibiotic, MHA 35° C.
[9] = tested on: Burkholderia cepacia ATCC 25416; assay: disk diffusion assay; settings: kakadumycin B at 10 μg; control antibiotic; MHA 35° C.
[10] = tested on: Pseudomonas aeruginosa ATCC 27853; assay: disk diffusion assay; assay type: cell-based; settings: kakadumycin B at 10 μg; control antibiotic; MHA 35° C.
[11] = tested on: Enterococcus faecium ATCC 49624; assay: disk diffusion assay; assay type: cell-based; settings: for diameter of the zone of inhibition, Enterococcus faecium ATCC 49624: 10 micrograms per disk, ciprofloxacin 5, vancomycin 30 micrograms per disk, 35° C.
[12] = tested on: Streptococcus pneumoniae ATCC 70676; assay: microbroth dilution MIC; assay type: cell-based; settings: ATCC70676, read-out: MIC Streptococcus pneumoniae ATCC 70676
[13] = tested on: Listeria monocytogenes 19115; assay: microbroth dilution MIC; assay type: cell-based; settings: Listeria monocytogenes, ATCC19115; Table 15; read-out: MIC Listeria monocytogenes ATCC 19115
[14] = tested on: Staphylococcus aureus ATCC 33591 (MRSA); assay: microbroth dilution MIC; assay type: cell-based; settings: Staphylococcus aureus; Table 15
[15] = tested on: Streptococcus pneumoniae ATCC 70674; assay: microbroth dilution MIC; assay type: cell-based; settings: ATCC70674, read-out: MIC Streptococcus pneumoniae ATCC 70674
[16] = tested on: Staphylococcus aureus ATCC 29213; assay: disk diffusion assay; assay type: cell-based
[17] = tested on: Listeria monocytogenes 19114; assay: microbroth dilution MIC; assay type: cell-based; settings: Listeria monocytogenes, ATCC19114; Table 15; read-out: MIC Listeria monocytogenes ATCC 19114
S. aureus ATCC 6583P = assay: MIC with and without double stranded DNA; assay type: cell-based, Staphylococcus aureus; settings: Staphylococcus aureus, ATCC6583P, read-out: MIC S. aureus ATCC 6583P
E. faecium 49624 = assay: microbroth dilution MIC; assay type: cell-based, Enterococcus faecium; settings: Enterococcus faecium, ATCC49624; Table 15; read-out: MIC Enterococcus faecium ATCC 49624
S. aureus 29213 = assay: microbroth dilution MIC; assay type: cell-based, Staphylococcus aureus; settings: Staphylococcus aureus, ATCC29213; Table 15; read-out: MIC Staphylococcus aureus ATCC 29213
[18] = tested on: Staphylococcus aureus GISA, ATCC 700787; assay: microbroth dilution MIC; assay type: cell-based; settings: ATCC700787, read-out: MIC Staphylococcus aureus GISA, ATCC 700787
[19] = tested on: Staphylococccus aureus 27734; assay: microbroth dilution MIC; assay type: cell-based, Staphylococcus aureus; settings: Staphylococcus aureus, ATCC27734; Table 15; read-out: MIC Staphylococcus aureus ATCC 27734
[20] = tested on: Staphyloccus aureus MH II Eli Lilly Co.; assay: microbroth dilution MIC; settings: Staphylococcus aureus, read-out: MIC Staphyloccus aureus MH II Eli Lilly Co.
[21] = tested on: Cell wall synthesis in Bacillus subtilis; assay: macromolecular synthesis whole cell assay, [3H]N-acetyl glucosamine incorporation; assay type: cell-based; settings: 1×MIC
S. epidermis 12228 = assay: microbroth dilution MIC; assay type: cell-based, Staphylococcus epidermidis; settings: Staphylococcus epidermidis, ATCC12228; Table 15; read-out: MIC Staphylococcus epidermidis ATCC 12228
[22] = tested on: Shigella dysenteriae ATCC 11835; assay: microbroth dilution MIC; assay type: cell-based; settings: ATCC11835, read-out: MIC Shigella dysenteriae ATCC 11835
B. subtilis 1A757 = assay: microbe, parasite or virus in culture; assay type: cell-based, Bacillus subtilis
[23] = tested on: Staphylococccus simulans 11631; assay: microbroth dilution MIC; assay type: cell-based, Staphylococcus simulans; settings: Staphylococcus simulans, ATCC11631; Table 15; read-out: MIC Staphylococcus simulans ATCC 11631
[24] = tested on: Enterococcus faecalis ATCC 29212; assay: disk diffusion assay; assay type: cell-based
[25] = tested on: Neisseria gonnorhea ATCC 49226; assay: disk diffusion assay; assay type: cell-based; settings: 10 micrograms per disk; ciprofloxacin 5, vancomycin 30 micrograms per disk; GC agar with 1% growth supplement with 5% CO2
[26] = tested on: Streptococcus pneumoniae 49619; assay: microbroth dilution MIC; assay type: cell-based; settings: Streptococcus pneumoniae, ATCC49619; Table 15; read-out: MIC Streptococcus pneumoniae ATCC 49619
[27] = tested on: Micrococcus luteus ATCC 9341; assay: disk diffusion assay; settings: kakadumycin B at 10 μg; control antibiotic; MHA 35° C.
[28] = tested on: Escherichia coli ATCC 25922; assay: disk diffusion assay; assay type: cell-based; settings: kakadumycin B at 10 μg; control antibiotic; MHA 35° C.
[29] = tested on: Staphylococcus aureus (GISA) ATCC 700699; assay: disk diffusion assay; settings: kakadumycin B at 10 μg; control antibiotic; MHA 35° C.
[30] = tested on: Salmonella typhimurium ATCC 13311; assay: disk diffusion assay; settings: kakadumycin B at 10 μg; control antibiotic; MHA 35° C.
[31] = tested on: S. maltophilia ATCC 13637; assay: disk diffusion assay; assay type: cell-based, Stenotrophomas maltophilia; settings: kakadumycin B at 10 μg; control antibiotic; MHA 35° C.
S. epidermis ATCC 12228 = assay: disk diffusion assay; assay type: cell-based, Staphylococcus epidermidis; settings: kakadumycin B at 10 μg; control antibiotic; MHA 35° C.
[32] = tested on: Human Primary Mammary Epithelial HMEC; assay: CellTiter 96 Aqueous Non-Radioactive Cell Proliferation Assay; assay type: cell-based
Procedure: (§1) The munumbicins were then tested against three human cancer cell lines (ATCC) and human primary mammary epithelial cells (HMECs) (Clonetics; Biowhittaker, Walkersville, Md.) using a CellTiter 96® Aqueous Non-Radioactive Cell Proliferation Assay kit from Promega (Madison, Wis.). The cell lines were A-549 (lung epithelial carcinoma, ATCC CCL-185), ME-180 (cervical epithelial epidermoid carcinoma, ATCC HTB-33), and BT-20 (breast epithelial cancer, ATCC HTB-19), and were grown in the media recommended by ATCC. The primary mammary cells were cultured as recommended by the manufacturer in mammary epithelial cell growth media (MEGM®). […] After seeding, the cells were incubated for five hours at 37° C. before addition of the munumbicins. Two-fold serial dilutions of the munumbicins were made in the culture medium, and a volume equal to that of the seeded cells for each dilution was added to three wells of cells. Each plate also contained some wells with cells plus medium only and some wells with medium only. […] The A-549 and ME-180 cells were incubated for 48 hours. […] The plates were incubated at 37° C. for one to four hours, and the OD490 was determined. The OD reading of all wells was corrected for background by subtracting the reading of wells containing medium only. […] Kakadumycin A was tested against three human cancer cell lines (ATCC) and human primary mammary epithelial cells using the procedure described above for the munumbicins. Kadadumycin B was tested against one human cancer cell line.

[33] = tested on: Human Breast Cancer Epithelial BT-20; assay: as above; assay type: cell-based; settings: text of Examples 15, 18, 19
Procedure: as §1

[34] = A3-5-1 10 micrograms, Cip 5 micrograms
[35] = kakadumycin B at 10 μg, control antibiotic
[36] = 10 micrograms per disk, ciprofloxacin 5, vancomycin 30 micrograms per disk, 35° C.
[37] = kakadumycin B at 10 μg, control antibiotic, MHA 35° C.

## O=C(O)c1cn(C2CC2)c2cc(N3CCNCC3)c(F)cc2c1=O [Ciprofloxacin, reference compound]
[1]; [34]
  Disk Diffusion, Klebsiella pneumoniae 10031: Cip (5 micro-)-34 mm
[1]; [35]
  Disk Diffusion, Klebsiella pneumoniae 10031: 32 mm (cipro)
[2]; [34]
  Disk Diffusion, Staphylococcus aureus (MRSA) 33591: Cip (5 micro-)-26 mm
[2]; [35]
  Disk Diffusion, Staphylococcus aureus (MRSA) 33591: 27 mm (cipro)
[3]; 5 min
  % [3H]thymidine (DNA synthesis) incorporation of that of the untreated culture: 36%
[3]; 10 min
  % [3H]thymidine (DNA synthesis) incorporation of that of the untreated culture: 35%
[4]
  diameter of the zone of inhibition, Enterococcus faecium ATCC 51559: 13 mm
[5]
  Disk Diffusion, Shigella dysenteriae 11835: 24 mm (cipro)
[6]; [36]
  diameter of the zone of inhibition, Enterococcus faecalis ATCC 51299: 22 mm
[6]
  Disk Diffusion, Enterococcus faccalis (VRE) 51299: 23 mm (cipro)
Bacillus anthracis K8902
  diameter of the zone of inhibition, Bacillus anthracis K8902: 16 mm
[7]
  Disk Diffusion, Streptococcus pneumoniae 49619: 24 mm (cipro)
[8]; 10 micrograms per disk, ciprofloxacin 5, vancomycin 30 micrograms per disk, grown at 30° C.
  diameter of the zone of inhibition, Acinetobacter sp. ATCC 49137: 29 mm
[8]
  Disk Diffusion, Acinetobacter spp. 49137: 26 mm (cipro)
[9]
  Disk Diffusion, Burkholderia cepacia 25416: 24 mm (cipro)
[10]
  Disk Diffusion, Pseudomonas aeruginosa 27853: 30 mm (cipro)
[11]
  diameter of the zone of inhibition, Enterococcus faecium ATCC 49624: 15 mm

## CN[C@H](CC(C)C)C(=O)N[C@H]1C(=O)N[C@@H](CC(N)=O)C(=O)N[C@H]2C(=O)N[C@H]3C(=O)N[C@H](C(=O)N[C@H](C(=O)O)c4cc(O)cc(O)c4-c4cc3ccc4O)[C@H](O)c3ccc(c(Cl)c3)Oc3cc2cc(c3O[C@@H]2O[C@H](CO)[C@@H](O)[C@H](O)[C@H]2O[C@H]2C[C@](C)(N)[C@H](O)[C@H](C)O2)Oc2ccc(cc2Cl)[C@H]1O [Vancomycin, reference compound]
[12]
  MIC: 0.25 µg/mL (≈ 0.173 µM)
[13]
  MIC: 1 µg/mL (≈ 0.69 µM)
[14]
  MIC: 2 µg/mL (≈ 1.38 µM)
[15]
  MIC: 0.25 µg/mL (≈ 0.173 µM)
[16]; [36]
  diameter of the zone of inhibition, Staphylococcus aureus ATCC 29213: 15 mm
[4]
  diameter of the zone of inhibition, Enterococcus faecium ATCC 51559: 0 mm
[17]
  MIC: 1 µg/mL (≈ 0.69 µM)
S. aureus ATCC 6583P
  MIC: 0.5 µg/mL (≈ 0.345 µM)
E. faecium 49624
  MIC: 0.5 µg/mL (≈ 0.345 µM)
S. aureus 29213
  MIC: 1 µg/mL (≈ 0.69 µM)
[18]
  MIC: 8 µg/mL (≈ 5.52 µM)
[19]
  MIC: 1 µg/mL (≈ 0.69 µM)
[7]; 10 micrograms per disk, ciprofloxacin 5, vancomycin 30 micrograms per disk, MHA with 5% dsb. and 5% CO2
  diameter of the zone of inhibition, Streptococcus pneumoniae ATCC 49619: 20 mm
[20]
  MIC: 0.06 µg/mL (≈ 0.0414 µM)
[21]; 5 min
  % [3H]N-acetyl glucosamine (Cell wall synthesis) incorporation of that of the untreated culture: 33%
[21]; 10 min
  % [3H]N-acetyl glucosamine (Cell wall synthesis) incorporation of that of the untreated culture: 41%
S. epidermis 12228
  MIC: 1 µg/mL (≈ 0.69 µM)
[22]
  MIC: 2 µg/mL (≈ 1.38 µM)
B. subtilis 1A757
  1×MIC against Bacillus subtilis: 0.25 micrograms/ml
  increase of MICs when DNA was added: not affected
B. subtilis 1A757; Bacillus subtilis, 1A757, read-out: MIC B. subtilis 1A757
  MIC: 0.125 µg/mL (≈ 0.0863 µM)
[23]
  MIC: 1 µg/mL (≈ 0.69 µM)
[24]; [36]
  diameter of the zone of inhibition, Enterococcus faecalis ATCC 29212: 18 mm
[25]
  diameter of the zone of inhibition, Neisseria gonnorhea ATCC 49226: 13 mm
[11]
  diameter of the zone of inhibition, Enterococcus faecium ATCC 49624: 22 mm
[26]
  MIC: 0.125 µg/mL (≈ 0.0863 µM)

## kakadumycin B
[1]; [35]
  Disk Diffusion, Klebsiella pneumoniae 10031: R
[27]
  Disk Diffusion, Micrococcus luteus 9341: 28 mm
[2]; [35]
  Disk Diffusion, Staphylococcus aureus (MRSA) 33591: 22 mm
[16]; [37]
  Disk Diffusion, Staphylococcus aureus 29213: 17 mm
[28]
  Disk Diffusion, Escherichia coli 25922: 8 mm
[29]
  Disk Diffusion, Staphylococcus aureus (GISA) 700699: 22 mm
[30]
  Disk Diffusion, Salmonella typhimurium 13311: R
[5]
  Disk Diffusion, Shigella dysenteriae 11835: 10 mm
[31]
  Disk Diffusion, Stenotrophomas maltophilia 13637: 13 mm
[6]
  Disk Diffusion, Enterococcus faccalis (VRE) 51299: 21 mm
[7]
  Disk Diffusion, Streptococcus pneumoniae 49619: 22 mm
Human red blood cells
  concentration causing detectable lysis of human red blood cells: > 80 micrograms/ml
[8]
  Disk Diffusion, Acinetobacter spp. 49137: 11 mm
S. epidermis ATCC 12228
  Disk Diffusion, Staphylococcus epidermidis 12228: 23 mm
[9]
  Disk Diffusion, Burkholderia cepacia 25416: R
[24]; [37]
  Disk Diffusion, Enterococcus faecalis 29212: 20 mm
[10]
  Disk Diffusion, Pseudomonas aeruginosa 27853: R
[11]; [37]
  Disk Diffusion, Enterococcus faecium 49624: 22 mm
[32]
  IC50 cytotoxicity, human mammary epithelial cells: 10.5±1.4 nanograms/ml
[33]
  IC50 human breast cancer cell line BT 20: 8.0 ng/mL
